Measured values: US5089516A, “1-phenyl-3,5-pyrazolidinedione hydroxystyrene compounds which have tyrosine kinase inhibiting activity” (Kanegafuchi Kagaku Kogyo Kabushiki Kaisha, priority 1987, dated 1992)
≈ marks a conversion by molar mass, not a printed value.

Assays:
[1] = tested on: Nycobacterium smegmatis ATCC 607; assay: Antibacterial activity (MIC) against acid-fast bacteria; format: cell-based; conditions: 37° C., 40 to 42 hours
Experimental: As for acid-fast bacteria, after cultured in glycerol broth medium, there was prepared a bacterial suspension for inoculation containing about 10^6 of the bacteria per 1 ml of the medium. On the other hand, there were prepared some glycerol Czapek agar plating media with adding the test compounds, and thereto the bacterial suspension for inoculation was streaked.

[2] = target: T1, epidermal growth factor receptor-tyrosine kinase complex (Homo sapiens, UniProt P00533); assay: Tyrosine kinase inhibiting activity (A-431 membrane preparation, EGF-stimulated); format: biochemical; conditions: read-out: Tyrosine kinase inhibition rate; for inhibition at 1 µM: 1 μM in the reaction mixture; for inhibition at 10 µM: 10 μM in the reaction mixture
T1 construct: The membrane preparation was employed in the following measurement without solubilization; endogenous in cells; host or cells: A-431 (ATCC CRL1555), membrane preparation, not solubilized
T1 sequence (P00533 25-1210, one chain of several): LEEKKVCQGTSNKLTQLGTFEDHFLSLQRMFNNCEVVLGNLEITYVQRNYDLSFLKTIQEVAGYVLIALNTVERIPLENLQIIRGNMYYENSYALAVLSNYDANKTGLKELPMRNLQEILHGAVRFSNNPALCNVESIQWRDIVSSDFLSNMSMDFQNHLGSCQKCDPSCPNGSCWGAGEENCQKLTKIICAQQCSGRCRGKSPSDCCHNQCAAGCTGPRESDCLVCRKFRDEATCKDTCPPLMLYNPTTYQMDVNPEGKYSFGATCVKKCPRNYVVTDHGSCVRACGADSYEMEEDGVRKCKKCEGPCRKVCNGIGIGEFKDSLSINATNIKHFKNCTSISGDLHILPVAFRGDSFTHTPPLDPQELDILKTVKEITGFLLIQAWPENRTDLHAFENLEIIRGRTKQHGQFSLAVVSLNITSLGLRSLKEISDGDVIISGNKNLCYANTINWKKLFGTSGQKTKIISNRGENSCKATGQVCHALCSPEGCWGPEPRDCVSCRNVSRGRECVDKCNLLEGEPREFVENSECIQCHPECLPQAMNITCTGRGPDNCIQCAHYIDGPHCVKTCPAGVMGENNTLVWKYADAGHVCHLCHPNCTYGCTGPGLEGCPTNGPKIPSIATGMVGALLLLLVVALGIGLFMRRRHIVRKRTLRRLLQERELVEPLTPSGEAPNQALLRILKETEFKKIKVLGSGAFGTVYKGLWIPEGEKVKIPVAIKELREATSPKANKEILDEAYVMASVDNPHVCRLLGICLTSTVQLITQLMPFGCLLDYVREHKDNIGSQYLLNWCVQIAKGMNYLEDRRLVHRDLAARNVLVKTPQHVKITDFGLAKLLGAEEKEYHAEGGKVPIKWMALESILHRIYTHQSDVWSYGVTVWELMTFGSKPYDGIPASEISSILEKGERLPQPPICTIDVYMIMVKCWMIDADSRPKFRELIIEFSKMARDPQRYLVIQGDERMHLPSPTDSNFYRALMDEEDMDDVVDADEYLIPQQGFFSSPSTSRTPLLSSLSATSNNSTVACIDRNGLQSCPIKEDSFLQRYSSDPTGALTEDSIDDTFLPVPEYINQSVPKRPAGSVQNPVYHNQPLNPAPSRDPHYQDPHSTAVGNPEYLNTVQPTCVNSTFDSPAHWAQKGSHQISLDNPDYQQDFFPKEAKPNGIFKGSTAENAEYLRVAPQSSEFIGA
Experimental: Tyrosine kinase inhibiting activity of the compound of the present invention was measured referring to a method for measuring tyrosine kinase activity by G. Carpenter or by S. Cohen et al. [J. Biol. Chem., 254, 4884(1979); J. Biol. Chem., 257, 1528(1982)].
Cell line A-431 derived from human carcinoma (ATCC CRL1555) was cultured at 37° C. under the condition of 5% CO2 in Dulbecco's modified Eagle's medium (made by NISSUE PHARMACEUTICAL CO., LTD.) containing 10% by volume fetal bovine serum, 50 μg/ml of streptomycin, 50 IU/ml of penicillin G and 50 μg/ml of kanamycin. […] The membrane preparation was employed in the following measurement without solubilization.
A test compound dissolved in dimethylsulfoxide (hereinafter referred to as "DMSO") was added to a mixture of 20 mM of N-2-hydroxyethylpiperazine-N'-2-ethanesulfonic acid buffer (pH 7.4), 1 mM of MnCl2, 7.5 μg of bovine serium albumin and the membrane preparation (10 μg as protein). After incubation at 0° C. for 5 minutes, 100 ng of epidermal growth factor (hereinafter referred to as "EGF") was added thereto and the mixture was further incubated at 0° C. for 15 minutes. [γ-^32 P]ATP (3000 Ci/mmol, 0.1 μCi) was added thereto to make final volume of 70 μl. After incubation at 0° C. for 15 minutes, 50 μl of the reaction mixture was soaked into Whatman 3 MM filter paper (made by Whatman Ltd.) and immediately the reaction was stopped by an aqueous solution of 10% by weight trichloroacetic acid containing 10 mM sodium pyrophosphate. The filter paper was sufficiently washed with the same solution and then washed with ethanol, and dried. Radioactivity present in the filter paper was measured by liquid scintillation counter (A). Also, radioactivity was measured in case of the reaction without EGF (B), the reaction without the test compound (C), and the reaction without both EGF and the test compound (D) as a control.
Tyrosine kinase inhibition rate (%) was calculated by the following equation. [formula]

5-lipoxygenase = target: T2, 5-lipoxygenase (Cavia porcellus, UniProt A0A286X958); assay: 5-Lipoxygenase inhibiting activity (5-HETE formation, cytosol of peritoneal exudate cells); format: biochemical, Hartley guinea pigs; conditions: read-out: Inhibition rate (5-lipoxygenase); for inhibition at 1 µM: 1 μM in the reaction mixture; for inhibition at 10 µM: 10 μM in the reaction mixture
T2 construct: The cytosol fraction was used as an enzyme solution; from tissue; host or cells: peritoneal exudate cells of casein-injected Hartley guinea pigs, 105,000×g cytosol
T2 sequence (A0A286X958 1-674): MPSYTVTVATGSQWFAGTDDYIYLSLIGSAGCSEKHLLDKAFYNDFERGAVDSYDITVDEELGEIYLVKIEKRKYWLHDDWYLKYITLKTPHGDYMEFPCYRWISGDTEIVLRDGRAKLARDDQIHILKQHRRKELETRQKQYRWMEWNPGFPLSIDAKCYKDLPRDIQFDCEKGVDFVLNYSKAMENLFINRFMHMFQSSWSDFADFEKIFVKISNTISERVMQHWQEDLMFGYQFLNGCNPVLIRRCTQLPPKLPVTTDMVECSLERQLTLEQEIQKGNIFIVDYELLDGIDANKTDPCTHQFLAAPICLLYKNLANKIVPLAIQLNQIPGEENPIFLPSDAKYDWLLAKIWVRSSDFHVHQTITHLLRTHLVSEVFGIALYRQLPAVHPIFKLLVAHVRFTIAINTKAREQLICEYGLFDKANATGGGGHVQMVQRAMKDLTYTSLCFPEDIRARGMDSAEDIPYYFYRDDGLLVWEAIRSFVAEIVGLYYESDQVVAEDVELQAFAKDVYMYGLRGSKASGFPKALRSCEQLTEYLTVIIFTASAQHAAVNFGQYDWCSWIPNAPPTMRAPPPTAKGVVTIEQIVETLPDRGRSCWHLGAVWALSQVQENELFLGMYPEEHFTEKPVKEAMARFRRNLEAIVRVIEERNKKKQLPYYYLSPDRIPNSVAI
Experimental: 5-Lipoxygenase inhibiting activity of the compound of the present invention was measured referring to the method for measuring 5-lipoxygenase activity by K. Ochi et al. [Journal of Biological Chemistry (J. Biol. Chem.), 258, 5754(1983)].
Sterilized 2% solution of casein (pH 7) was injected intraperitoneally into Hartley guinea pigs in a volume of 5 ml/100 g body weight. Fifteen hours later, the guinea pigs were killed and peritoneal exudate cells thereof were collected. After the exudate cells were washed with 17 mM Tris--HCl buffer (pH 7.4) containing 0.74% ammonium to remove contaminating erythrocytes in the exudate cells suspension, the cells were washed with buffer A (130 mM NaCl, 1 mM EDTA, 25 mM sodium phosphate, pH 7.4). The washed cells were suspended in buffer B (50 mM sodium phosphate, 1 mM EDTA, 0.1% gelatin, pH 7.4) at 10^8 cells/ml, sonicated and centrifuged at 10,000×g for 20 minutes under the cold atmosphere. The obtained supernatant was further centrifuged at 105,000×g for 60 minutes under the cold atmosphere. The cytosol fraction was used as an enzyme solution.
The enzyme solution was preincubated with the […] in the presence of 1 mM CaCl2, 1 mM reduced gluthathione (GSH) and 2 mM ATP at 30° C. for 5 minutes in 0.2 ml of a reaction mixture and the mixture was further incubated at 30° C. for 5 minutes by adding 20 μM [1-^14 C] arachidonic acid (0.1 μCi) thereto. The test compounds were dissolved in ethanol to give the reaction mixture containing 2% ethanol as a final concentration. Only ethanol was added to the reaction mixture as a control group.
To the reaction mixture were added 2.5 ml of a mixture of chloroform and methanol (2/1 by volume) and 0.3 ml of 40 mM citric acid to stop the reaction. The mixture was vortexed and an organic solvent layer was evaporated to dryness under nitrogen gas. After dissolving the dried organic layer in a fixed amount of the mixture of chloroform and methanol (2/1 by volume), it was spotted on a silica gel plate (Kiesel gel 60F254, E. Merck) and products were separated using a developer (the organic solvent layer of ethyl acetate/water/2,2,4-trimethylpentane/acetic acid=11/10/5/2 by volume). After the radioactive position of the product was determined by means of a radioautography, an area equivalent to that of 5-hydroxyeicosatetraenoic acid (hereinafter referred to as "5-HETE") was scraped off, and then its radioactivity was measured with a liquid scintillation counter. With regarding the amount of the generated 5-HETE as the 5-lipoxygenase inhibiting activity, the inhibition rate (%) in comparison with the control group was calculated according to the following equation. [formula]

[3] = target: T3, reverse transcriptase derived from Moloney-Murine Leukemia Virus (M-MLV) (Moloney murine leukemia virus, UniProt P03355); assay: Inhibiting activity against reverse transcriptase derived from M-MLV; format: biochemical; conditions: read-out: Inhibition rate (reverse transcriptase derived from M-MLV); for inhibition at 10 µM: 10 μM in the reaction mixture
T3 construct: reverse transcriptase derived from Moloney-Murine Leukemia Virus; purchased Pharmacia K. K
Experimental: There was found the following point by using reverse transcriptase derived from Moloney-Murine Leukemia Virus (hereinafter referred to as "M-MLV").
The compound of the present invention was dissolved in DMSO to give a 100 mM solution thereof. Then, the solution was diluted with distilled water containing DMSO to give a solution of the test compound having a defined concentration. A mixed ratio of DMSO and distilled water was adjusted so that the concentration of DMSO at this time is 10% by volume and a final concentration of DMSO at the beginning of a reaction is 1% by volume.
The thus prepared solution of the test compound was mixed with a solution containing 50 mM of Tris--HCl buffer (pH 8.3), 8 mM of MgCl2, 30 mM of NaCl, 50 mM of dithiothreitol (made by Wako Pure Chemical Industries Ltd.), 0.2 mM of thymidine-5'-triphosphate (made by Pharmacia K. K.) and 6 U/ml of reverse transciptase derived from M-MLV (made by Pharmacia K. K.), and preincubated at 37° C. for 30 minutes. After there was added thereto 10 μg/ml of polyadenylic acid (made by PL Biochemicals Co., Ltd.), 0.01 U/ml of oligodeoxy thymidylic acid (made by Pharmacia K. K.) and 10 μCi/ml of [methyl-^3 H] thymidine-5'-triphosphate (made by Amersham Japan Co., Ltd., 47 Ci/mmol) to give a reaction mixture, the mixture was further incubated at 37° C. for 30 minutes, followed by cooling with ice to stop the reaction.
The radioactivity incorporated into deoxyribonucleic acids was measured according to the method of Linteril et al (Science 170, 447 to 449 (1967)). A defined volume of the reaction mixture was soaked into DE-81 filter paper (made by Whatman Ltd.), the filter paper was washed with 5% by weight of Na2 HPO4 solution for three times, and with distilled water and ethanol successively, and then dried. Radioactivity contained in the filter paper was measured by liquid scintillation counter to give the each radioactivity of the test solution groups.
On the other hand, the same procedure as above was carried out using DMSO-distilled water without the test compound instead of using the test solution, to give the value of radioactivity of a control group.
Reverse transcriptase derived from M-MLV inhibition rate (%) was calculated by the following equation. [formula]

[4] = tested on: antigen-induced airway constriction; assay: Inhibitory activity against antigen-induced airway constriction in actively sensitized guinea pigs; format: in vivo; conditions: Cavia porcellus, iv, 3 minutes before antigen inhalation, read-out: Inhibition rate (airway constriction)
Experimental: (3) Inhibitory activity against antigen-induced airway constriction in actively sensitized guinea pigs
That is, the sensitized guinea pigs (5 guinea pigs/group) were provided with artificial respiration by inserting a tracheal cannula under urethane anesthesia (1.5 g/kg body weight, intraperitoneal administration), and then, gallamine at 1 mg/kg body weight was injected intravenously to stop spontaneous respiration of the guinea pigs. Inhalation of 0.5% aqueous solution of ovalbumin was conducted using a nebulizer for 1 minute to increase antigen-induced airway constriction, at the same time, airway pressure was recorded through a transducer. Test compound was administered into jugular vein (i.v.) of the guinea pig 3 minutes before the antigen inhalation or administered orally (p.o.) 2 hours before the antigen inhalation. As a positive control compound, theophylline which was a drug for anti-asthma was used. The effect of the compound was estimated by calculating the maximum value of airway constriction (%) in comparison with the control group, according to the following equation. [formula]

| Compound | inhibition at 1 µM [2] [%] | inhibition at 1 µM (5-lipoxygenase) [%] | further results |
| --- | --- | --- | --- |
| CC(C)c1cc(C=C2SC(NCc3cccs3)=NC2=O)cc(C(C)C)c1O [Compound 44] | 80 |  | MIC [1]: ≤ 6 µg/mL |
| CCCCOc1cc(C=C2SC(NCc3ccccc3)=NC2=O)cc(Cc2ccccc2)c1O [Compound 30] | 70 | 87 | MIC [1]: ≤ 6 µg/mL |
| O=C1Nc2ccccc2S(=O)(=O)C1=Cc1cc(Cc2ccccc2)c(O)c(Cc2ccccc2)c1 [Compound 5] | 42 |  | inhibition at 10 µM [3]: 87% |
| CC(C)c1cc(C=C2SC(NCc3ccc([N+](=O)[O-])cc3)=NC2=O)cc(C(C)C)c1O [Compound 40] |  |  | inhibition at 10 µM (5-lipoxygenase): 87%; inhibition at 10 µM [2]: 21% |
| CCCCOc1cc(C=C2SC(NCc3ccccc3)=NC2=O)cc(CSc2ccccc2)c1O [Compound 29] | 63 | 86 |  |
| COc1cc(C=C(C#N)C(N)=O)cc(Cc2ccccc2)c1O [Compound 22] | 84 |  | inhibition at 10 µM (5-lipoxygenase): 63% |
| CC(C)c1cc(C=C2SC(NCc3ccccn3)=NC2=O)cc(C(C)C)c1O [Compound 45] |  | 36 | MIC [1]: 2 µg/mL (≈ 5.06 µM); inhibition in vivo at 1 mg/kg [4]: 42%; inhibition at 10 µM [2]: 90% |
| CCOc1cc(C=C2SC(=S)NC2=O)cc(CSc2ccccc2)c1O [Compound 6] |  |  | inhibition at 10 µM [3]: 98% |
| CCOc1cc(C=C(C#N)C(N)=O)cc(Cc2ccccc2)c1O [Compound 21] | 98 |  |  |
| O=C1Nc2ccccc2C1=Cc1cc(-c2ccccc2)c(O)c(-c2ccccc2)c1 [Compound 3] | 45 |  |  |
| O=C1Nc2ccccc2C1=Cc1cc(CSc2ccccc2)c(O)c(OCc2ccccc2)c1 [Compound 12] |  | 84 | inhibition in vivo at 1 mg/kg [4]: 32%; inhibition at 10 µM [2]: 30% |
| O=C1N=C(NCc2ccccc2)SC1=Cc1cc(-c2ccccc2)c(O)c(-c2ccccc2)c1 [Compound 25] |  | 23 | inhibition at 10 µM [2]: 72% |
| O=C1N=C(NCc2ccco2)SC1=Cc1cc(O)c(O)c(CSc2ccccc2)c1 [Compound 27] | 58 |  | inhibition at 1 µM ([3]; 1 μM in the reaction mixture): 73% |
| CC(C)c1cc(C=C2SC(NCc3ccco3)=NC2=O)cc(C(C)C)c1O [Compound 43] |  | 53 | inhibition in vivo at 5 mg/kg ([4]; 5 mg/kg): 21%; inhibition at 10 µM [2]: 95% |
| CCCCOc1cc(C=C2C(=O)Nc3ccccc32)cc(Cc2ccccc2)c1O [Compound 14] | 43 | 27 |  |
| COc1cc(C=C2C(=O)Nc3ccccc32)cc(Cc2ccccc2)c1O [Compound 13] |  | 86 |  |
| O=C1OCCC1=Cc1cc(Cc2ccccc2)c(O)c(Cc2ccccc2)c1 [Compound 17] | 25 |  |  |
| CCOc1cc(C=C2SC(NCc3ccccc3)=NC2=O)cc(CSc2ccccc2)c1O [Compound 28] | 66 |  | MIC [1]: ≤ 15 µg/mL |
